# In patent US6987114B1, “Antiviral pyrimidinedione derivatives and process for the preparation thereof” (Samjin Pharmaceutical Co., Ltd, priority 1999, dated 2006):
# Where two headings read alike, the source gives them in different places.
# Columns and labels:
# [1] = system: HIV; assay: microbe, parasite or virus in culture; type: cell-based
# Method: Anti-HIV activity tests in vitro of the compounds according to the present invention were performed as described in J. Med. Chem, 34, 357, 1991. Inhibition by the compounds of virus-induced cytotoxic effect in MT-4 cells was measured as follows.
# (§1) MT-4 cells were suspended in culture media at 2.5×10^5 cells/ml and infected with 1000 CCID50 (50% cell culture infective dose) of HIV. Immediately after virus infection, 100 μl of cell suspension was brought into each well of a flat-bottomed microtitray containing various concentrations of the test compounds. After 4 or 5 days incubation at 37° C., efficacy of the compounds was determined by the MTT method. Cytotoxicity of the compounds was assessed in parallel with their antiviral activity, based on viability of mock-infected host cells as determined by the MTT method.
# [2] = system: mock-infected MT-4 cells; assay: Cytotoxicity based on viability of mock-infected host cells (MTT method); type: cell-based
# Method: as §1
# [3] = HIV-infected MT-4 cells, MTT method, 4 or 5 days at 37° C.
# [4] = mock-infected MT-4 cells, MTT method, 4 or 5 days at 37° C.
# [5] = Human immunodeficiency virus 1, MT4, HIV-infected MT-4 cells, MTT method, 4 or 5 days at 37° C., read-out: ED50 (the source's name)
# [6] = Human immunodeficiency virus 1, MT4, read-out: ED50
Molecule,"ED50 [1, 3] [µg/mL]","CD50 [2, 4] [µg/mL]",CD50 [2] [µg/mL],"EC50 [1, 5] [µg/mL]","EC50 [1, 6] [µg/mL]"
"1-(2-Naphthalenemethyl)-5-ethyl-6-(3,5-dimethylbenzoyl)-2,4-pyrimidinedione [Example 95]",0.013,16.50,,,
"1-(2-Naphthalenemethyl)-5-ethyl-6-(3,5-dimethylphenoxy)-2,4-pyrimidinedione [Example 93]",0.013,83.22,,,
"1-(2-Naphthalenemethyl)-5-ethyl-6-(3,5-dimethylphenyl)thio-2,4-pyrimidinedione [Example 91]",0.004,1.27,,,
"1-(2-Naphthalenemethyl)-5-isopropyl-6-(3,5-dimethyl-benzoyl)-2,4-pyrimidinedione [Example 96]",0.014,9.64,,,
"1-(2-Naphthalenemethyl)-5-isopropyl-6-(3,5-dimethyl-phenyl)thio-2,4-pyrimidinedione [Example 92]",0.013,8.93,,,
"1-(Benzoxazol-2-ylmethyl)-5-isopropyl-6-(3,5-dimethyl-benzoyl-2,4-pyrimidinedione [Example 150]",0.0031,7.09,,,
"1-(Phenacyl)-5-ethyl-6-(3,5-dimethylbenzoyl)-2,425 pyrimidinedione [Example 167]",0.0569,,43.31,,
"1-(Phenacyl)-5-ethyl-6-(3,5-dimethylphenoxy)-2,415 pyrimidinedione [Example 165]",>58.11,,58.11,,
"1-(Phenacyl)-5-isopropyl-6-(3,5-dimethylbenzoyl)-2,430 pyrimidinedione [Example 168]",0.0174,,5.48,,
"1-(Phenacyl)-5-isopropyl-6-(3,5-dimethylphenoxy)-2,420 pyrimidinedione [Example 166]",0.7562,,>100.00,,
Cc1cn([C@H]2C[C@H](N=[N+]=[N-])[C@@H](CO)O2)c(=O)[nH]c1=O [AZT],0.0015,0.70,,,
"Cc1cc(C)cc(Sc2c(C(C)C)c(=O)[nH]c(=O)n2CC2CC2)c1 [Example 2, 1-(Cyclopropyl)methyl-5-isopropyl-6-(3,5-dimethylphenyl)thio-2,4-pyrimidinedione]",,12.43,,< 0.0002,
"CCc1c(Oc2cc(C)cc(C)c2)n(CC2CC2)c(=O)[nH]c1=O [Example 3, 1-(Cyclopropyl)methyl-5-ethyl-6-(3,5-dimethylphenoxy)-2,4-pyrimidinedione]",,>100.00,,0.011,
"CCc1c(Sc2cc(C)cc(C)c2)n(CC2CCC2)c(=O)[nH]c1=O [Example 7, 1-(Cyclobutyl)methyl-5-ethyl-6-(3,5-dimethylphenyl)thio-2,4-pyrimidinedione]",,11.73,,0.028,
"Cc1cc(C)cc(Sc2c(C(C)C)c(=O)[nH]c(=O)n2CC2CCC2)c1 [Example 8, 1-(Cyclobutyl)methyl-5-isopropyl-6-(3,5-dimethylphenyl)thio-2,4-pyrimidinedione]",,5.9,,0.013,
"CCc1c(Oc2cc(C)cc(C)c2)n(CC2CCC2)c(=O)[nH]c1=O [Example 9, 1-(Cyclobutyl)methyl-5-ethyl-6-(3,5-dimethylphenoxy)-2,4-pyrimidinedione]",,>100.00,,0.0756,
"Cc1cc(C)cc(Oc2c(C(C)C)c(=O)[nH]c(=O)n2CC2CCC2)c1 [Example 10, 1-(Cyclobutyl)methyl-5-isopropyl-6-(3,5-dimethylphenoxy)-2,4-pyrimidinedione]",,7.8,,0.0147,
"CCc1c(Sc2cc(C)cc(C)c2)n(CC2CCCCC2)c(=O)[nH]c1=O [Example 13, 1-(Cyclohexyl)methyl-5-ethyl-6-(3,5-dimethylphenyl)thio-2,4-pyrimidinedione]",,11.10,,,0.27
"Cc1cc(C)cc(Sc2c(C(C)C)c(=O)[nH]c(=O)n2CC2CCCCC2)c1 [Example 14, 1-(Cyclohexyl)methyl-5-isopropyl-6-(3,5-dimethylphenyl)thio-2,4-pyrimidinedione]",,6.40,,,0.061
"CCc1c(Oc2cc(C)cc(C)c2)n(CC2CCCCC2)c(=O)[nH]c1=O [Example 15, 1-(Cyclohexyl)methyl-5-ethyl-6-(3,5-dimethylphenoxy)-2,4-pyrimidinedione]",,9.17,,,0.069
"Cc1cc(C)cc(Oc2c(C(C)C)c(=O)[nH]c(=O)n2CC2CCCCC2)c1 [Example 16, 1-(Cyclohexyl)methyl-5-isopropyl-6-(3,5-dimethylphenoxy)-2,4-pyrimidinedione]",,8.30,,,0.065
"CCc1c(Sc2cc(C)cc(C)c2)n(Cc2ccccc2)c(=O)[nH]c1=O [Example 19, 1-Benzyl-5-ethyl-6-(3,5-dimethylphenyl)thio-2,4-pyrimidine-dione]",,12.59,,0.015,
"Cc1cc(C)cc(Sc2c(C(C)C)c(=O)[nH]c(=O)n2Cc2ccccc2)c1 [Example 20, 1-Benzyl-5-isopropyl-6-(3,5-dimethylphenyl)thio-2,4-pyrimidinedione]",,11.30,,0.012,
"CCc1c(Oc2cc(C)cc(C)c2)n(Cc2ccccc2)c(=O)[nH]c1=O [Example 21, 1-Benzyl-5-ethyl-6-(3,5-dimethylphenoxy)-2,4-pyrimidine-dione]",,16.58,,0.036,
"Cc1cc(C)cc(Oc2c(C(C)C)c(=O)[nH]c(=O)n2Cc2ccccc2)c1 [Example 22, 1-Benzyl-5-isopropyl-6-(3,5-dimethylphenoxy)-2,4-pyrimidinedione]",,25.48,,0.015,
"Cc1cc(C)cc(C(=O)c2c(C(C)C)c(=O)[nH]c(=O)n2Cc2ccccn2)c1 [Example 114, 1-(Pyridin-2-2-ylmethyl)-5-isopropyl-6-(3,5-dimethyl-benzoyl)-2,4-pyrimidinedione]",0.0032,24.60,,,
"CCc1c(C(=O)c2cc(C)cc(C)c2)n(Cc2cccc(Br)n2)c(=O)[nH]c1=O [Example 129, 1-(2-Bromopyridib-6-ylmethyl)-5-ethyl-6-(3,5-dimethyl-benzoyl)-2,4-pyrimidinedione]",0.010,,7.44,,
"CCc1c(Oc2cc(C)cc(C)c2)n(CC2CO2)c(=O)[nH]c1=O (stereo not drawn) [Example 137, 1-(2,3-Epoxypropyl)-5-ethyl-6-(3,5-dimethylphenoxy)-2,4-pyrimidinedione]",,40.50,,,1.25
"Cc1cc(C)cc(Oc2c(C(C)C)c(=O)[nH]c(=O)n2CC2CO2)c1 (stereo not drawn) [Example 138, 1-(2,3-Epoxypropyl)-5-isopropyl-6-(3,5-dimethylphenoxy)-2,4-pyrimidinedione]",,39.60,,,0.34
"CCc1c(C(=O)c2cc(C)cc(C)c2)n(CC2CO2)c(=O)[nH]c1=O (stereo not drawn) [Example 139, 1-(2,3-Epoxypropyl)-5-ethyl-6-(3,5-dimethylbenzoyl)-2,4-pyrimidinedione]",,>100.00,,,0.34
